Measured values as given in patent US20230391772A1, “METHODS AND COMPOSITIONS FOR TARGETED PROTEIN DEGRADATION” (Ranok Therapeutics (Hangzhou) Co. Ltd., priority 2020, published 2023).

Key:
[1] = test system: MIA PaCa-2 human pancreatic carcinoma; test: MIA PaCa-2 CCK-8 proliferation assay; type: cell-based; settings: MIA PaCa-2 cells
Procedure, shortened: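 MIA PaCa-2 (2 copies KRAS(G12C)), NCI-H358 and NCI-H23 (1 copy KRAS(G12C) each) were exposed to compound in 3-fold serial dilutions from 20 μM to 1.02 nM. Viability was read as CCK-8 absorbance, and % inhibition was computed against DMSO-treated cells, with cell-free DMSO medium as blank.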

KRAS(G12C) [2] = biological target: T1, KRAS(G12C) (Homo sapiens, UniProt P01116, G12C); test: KRAS(G12C)/SOS1 homogeneous time-resolved fluorescence (HTRF) assay; design: purchased Cisbio 63ADK000CB16PEG; settings: absence of GTP, 4° C. for 3 hr, read-out: KRAS (G12C) binding
T1 sequence (P01116 1-188 isoform P01116-2 G12C): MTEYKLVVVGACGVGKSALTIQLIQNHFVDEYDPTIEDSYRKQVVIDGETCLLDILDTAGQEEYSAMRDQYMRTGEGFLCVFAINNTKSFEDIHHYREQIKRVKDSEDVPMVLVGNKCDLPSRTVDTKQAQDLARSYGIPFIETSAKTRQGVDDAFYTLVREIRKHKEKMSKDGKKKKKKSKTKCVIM
Procedure, shortened: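 Three-hour incubation at 4 °C of 3-fold compound dilutions (lowest 1.02 nM) with KRAS(G12C), SOS1 and detection reagents, GTP absent. Disruption of the KRAS(G12C)/SOS1 complex detected by time-resolved fluorescence.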

KRAS(G12C) [3] = biological target: T1, KRAS(G12C); test: KRAS(G12C) Western blot protein degradation assay in LU65A cells; type: cell-based; design: LU65A human lung cancer cell line, which expresses KRAS(G12C); host or cells: LU65A; settings: 6 hr
Description: The following cancer cell lines were employed: BT-474 human breast carcinoma (ATCC, #HTB-20); MIA PaCa-2 human pancreatic carcinoma [2 copies KRAS(G12C)](ATCC, #CRL-1420); NCI-H23 human non-small cell lung cancer [1 copy KRAS(G12C)](ATCC, #CRL-5800); NCI-H358 human non-small cell lung cancer [1 copy KRAS(G12C)](ATCC, #CRL-5807); LU65A human lung carcinoma (Pharmaron, Beijing, China). Cell lines were cultured essentially according to ATCC and Pharmaron recommendations.
KRAS(G12C) Western Blot Protein Degradation Assay
The MIA PaCa-2 human pancreatic carcinoma cell line and LU65A human lung cancer cell line, which expresses KRAS(G12C), were seeded in 6- or 12-well tissue culture plates, and after 1 hr, test compounds were added at various concentrations and incubated at 37° C./5% CO2 for 48 hr (MIA Paca-2) and 6 hr (LU65A) respectively. Cells were then washed with cold PBS, aspirated and cold RIPA buffer containing a protease/phosphatase inhibitor cocktail was added to lyse cells. After centrifugation, the total protein concentrations of cell lysates were determined using the BCA protein assay. Samples were normalized for equivalent protein concentrations, 5×SDS-PAGE loading buffer added and denatured at 100° C. for 10 min. 20 μl of each sample/well was loaded on a SDS-PAGE gel and electrophoresed for 20 min at 80 V, then 120 V for 1.5 hr. Gels were then electroblotted to nitrocellulose membranes using a wet-transfer method at 250 mA for 2.5 hr. Membranes were incubated with blocking buffer for 1 hr and washed 3 times with TBST for 5 min. Membranes were then incubated with anti-KRAS (Sigma-Aldrich, #SAB1404011) and anti-β-Actin monoclonal antibodies (Cell Signaling Technology, #3700) diluted in blocking buffer at 4° C. overnight per the manufacturer's recommendations. After washing 3 times, blots were incubated with appropriately labeled secondary antibodies for 1 hr at room temperature and washed again. Fluorescence imaging and quantitation was performed using a LI-COR Odyssey. Results was analyzed using GraphPad Prism 7 software. Compound degradation of was determined by the following equation and DC50 values (the concentration at which 50% of the maximal degradation of KRAS occurs) calculated using GraphPad Prism 7 software:
% Inhibition=100−(D−B)/(S−B)*100%. • S: Fluorescence intensity of cells with antibody • D: Fluorescence intensity of compound-treated cells with antibody • B: Fluorescence intensity of cells without antibody

SMILES	EC50 ([1]; Homo sapiens, MIA PaCa-2, 72 h)	IC50 (KRAS(G12C) [2])	DC50 (KRAS(G12C) [3])	EC50 ([1]; 72 hr)
C=CC(=O)N1CCN(c2nc(OC[C@@H]3CC[C@H](CN4CCN(Cc5ccc(-n6c(C(=O)NCC)nnc6-c6cc(C(C)C)c(O)cc6O)cc5)CC4)N3C)nc3c2CCN(c2cccc4cccc(C)c24)C3)C[C@@H]1CC#N [Compound 289, 4-{4-[(4-{[(2R,5S)-5-[({4-[(3S)-3-(cyanomethyl)-4-(prop-2-enoyl)piperazin-1-yl]-7-(8-methylnaphthalen-1-yl)-5H,6H,8H-pyrido[3,4-d]pyrimidin-2-yl}oxy)methyl]-1-methylpyrrolidin-2-yl]methyl}piperazin-1-yl)methyl]phenyl}-5-(2,4-dihydroxy-5-isopropylphenyl)-N-ethyl-1,2,4-triazole-3-carboxamide]	< 100 nM	< 100 nM	> 1000 nM	–
C=CC(=O)N1CCN(c2nc(OCC3(CN4CCN(Cc5ccc(-n6c(C(=O)NCC)nnc6-c6cc(C(C)C)c(O)cc6O)cc5)CC4)CC3)nc3c2CCN(c2cccc4cccc(Cl)c24)C3)C[C@@H]1CC#N [Compound 285, 4-{4-[(4-{[1-({[7-(8-chloronaphthalen-1-yl)-4-[(3S)-3-(cyanomethyl)-4-(prop-2-enoyl)piperazin-1-yl]-5H,6H,8H-pyrido[3,4-d]pyrimidin-2-yl]oxy}methyl)cyclopropyl]methyl}piperazin-1-yl)methyl]phenyl}-5-(2,4-dihydroxy-5-isopropylphenyl)-N-ethyl-1,2,4-triazole-3-carboxamide]	< 100 nM	< 100 nM	100 to 1000 nM	–
C=CC(=O)N1CCN(c2nc(OC[C@@H]3C[C@H](N4CCC5(CCN(Cc6ccc(-n7c(C(=O)NCC)nnc7-c7cc(C(C)C)c(O)cc7O)cc6)CC5)CC4)CN3C)nc3c2CCN(c2cccc4cccc(Cl)c24)C3)C[C@@H]1CC#N [Compound 259, 4-[4-({9-[(3S,5S)-5-({[7-(8-chloronaphthalen-1-yl)-4-[(3S)-3-(cyanomethyl)-4-(prop-2-enoyl)piperazin-1-yl]-5H,6H,8H-pyrido[3,4-d]pyrimidin-2-yl]oxy}methyl)-1-methylpyrrolidin-3-yl]-3,9-diazaspiro[5.5]undecan-3-yl}methyl)phenyl]-5-(2,4-di hydroxy-5-isopropylphenyl)-N-ethyl-1,2,4-triazole-3-carboxamide]	< 100 nM	< 100 nM	< 100 nM	–
C=CC(=O)N1CCN(c2nc(OC[C@@H]3C[C@H](N4CCC5(CCN(Cc6ccc(-n7c(O)nnc7-c7cc(C(C)C)c(O)cc7O)cc6)CC5)CC4)CN3C)nc3c2CCN(c2cccc4ccccc24)C3)C[C@@H]1CC#N [Compound 248, 2-[(2S)-4-(2-{[(2S,4S)-4-[9-({4-[3-(2,4-dihydroxy-5-isopropylphenyl)-5-hydroxy-1,2,4-triazol-4-yl]phenyl}methyl)-3,9-diazaspiro[5.5]undecan-3-yl]-1-methylpyrrolidin-2-yl]methoxy}-7-(naphthalen-1-yl)-5H,6H,8H-pyrido[3,4-d]pyrimidin-4-yl)-1-(prop-2-enoyl)piperazin-2-yl]acetonitrile]	100 to 1000 nM	100 to 1000 nM	100 to 1000 nM	–
C=CC(=O)N1CCN(c2nc(OC[C@@H]3C[C@H](N4CCN(Cc5ccc(-n6c(O)nnc6-c6cc(C(C)C)c(O)cc6O)cc5)CC4)CN3C)nc3c2CCN(c2cccc4cccc(C)c24)C3)C[C@@H]1CC#N [Compound 279, 2-[(2S)-4-(2-{[(2S,4S)-4-[4-({4-[3-(2,4-dihydroxy-5-isopropylphenyl)-5-hydroxy-1,2,4-triazol-4-yl]phenyl}methyl)piperazin-1-yl]-1-methylpyrrolidin-2-yl]methox-y}-7-(8-methylnaphthalen-1-yl)-5H,6H,8H-pyrido[3,4-d]pyrimidin-4-yl)-1-(prop-2-enoyl)piperazin-2-yl]acetonitrile]	100 to 1000 nM	< 100 nM	100 to 1000 nM	–
C=CC(=O)N1CCN(c2nc(OCCN3CCC(C(=O)N4CCN(Cc5ccc(-n6c(C(=O)NCC(F)(F)F)nnc6-c6cc(C)c(O)cc6O)cc5)CC4)CC3)nc3c2CCN(c2cccc4cccc(Cl)c24)C3)C[C@@H]1CC#N [Compound 250, (S)-4-(4-((4-(1-(2-((4-(4-acryloyl-3-(cyanomethyl)piperazin-1-yl)-7-(8-chloronaphthalen-1-yl)-5,6,7,8-tetrahydropyrido[3,4-d]pyrimidin-2-yl)oxy)ethyl)piperidine-4-carbonyl)piperazin-1-yl)methyl)phenyl)-5-(2,4-dihydroxy-5-methylphenyl)-N-(2,2,2-trifluoroethyl)-4H-1,2,4-triazole-3-carboxamide]	–	< 100 nM	> 1000 nM	100 to 1000 nM
C=CC(=O)N1CCN(c2nc(OC[C@@H]3C[C@H](N4CCN(C(=O)C5CCN(Cc6ccc(-n7c(C(=O)NCC)nnc7-c7cc(C(C)C)c(O)cc7O)cc6)CC5)CC4)CN3C)nc3c2CCN(c2cccc4cccc(Cl)c24)C3)C[C@@H]1CC#N [Compound 283, 4-{4-[(4-{4-[(3S,5S)-5-({[7-(8-chloronaphthalen-1-yl)-4-[(3S)-3-(cyanomethyl)-4-(prop-2-enoyl)piperazin-1-yl]-5H,6H,8H-pyrido[3,4-d]pyrimidin-2-yl]oxy}methyl)-1-methylpyrrolidin-3-yl]piperazine-1-carbonyl}piperidin-1-yl)methyl]phenyl}-5-(2,4-dihydroxy-5-isopropylphenyl)-N-ethyl-1,2,4-triazole-3-carboxamide]	100 to 1000 nM	< 100 nM	< 100 nM	–

Now from value to molecule:

EC50 ([1]; Homo sapiens, MIA PaCa-2, 72 h)	IC50 (KRAS(G12C) [2])	DC50 (KRAS(G12C) [3])	EC50 ([1]; 72 hr)	SMILES
100 to 1000 nM	< 100 nM	100 to 1000 nM	–	C=CC(=O)N1CCN(c2nc(OC[C@@H]3C[C@H](N4CCN(C(=O)C5CCN(Cc6ccc(-n7c(O)nnc7-c7cc(C(C)C)c(O)cc7O)cc6)CC5)CC4)CN3C)nc3c2CCN(c2cccc4cccc(Cl)c24)C3)C[C@@H]1CC#N [Compound 264, 2-[(2S)-4-[7-(8-chloronaphthalen-1-yl)-2-{[(2S,4S)-4-{4-[1-({4-[3-(2,4-dihydroxy-5-isopropylphenyl)-5-hydroxy-1,2,4-triazol-4-yl]phenyl}methyl)piperidine-4-carbonyl]piperazin-1-yl}-1-methylpyrrolidin-2-yl]methoxy}-5H,6H,8H-pyrido[3,4-d]pyrimidin-4-yl]-1-(prop-2-enoyl)piperazin-2-yl]acetonitrile]
< 100 nM	< 100 nM	> 1000 nM	–	C=CC(=O)N1CCN(c2nc(OC[C@@H]3CC[C@H](CN4CCN(Cc5ccc(-n6c(C(=O)NCC)nnc6-c6cc(C(C)C)c(O)cc6O)cc5)CC4)N3C)nc3c2CCN(c2cccc4ccccc24)C3)C[C@@H]1CC#N [Compound 288, 4-{4-[(4-{[(2R,5S)-5-[({4-[(3S)-3-(cyanomethyl)-4-(prop-2-enoyl)piperazin-1-yl]-7-(naphthalen-1-yl)-5H,6H,8H-pyrido[3,4-d]pyrimidin-2-yl}oxy)methyl]-1-methylpyrrolidin-2-yl]methyl}piperazin-1-yl)methyl]phenyl}-5-(2,4-dihydroxy-5-isopropylphenyl)-N-ethyl-1,2,4-triazole-3-carboxamide]
100 to 1000 nM	< 100 nM	100 to 1000 nM	–	C=CC(=O)N1CCN(c2nc(OC[C@@H]3C[C@H](N4CCN(Cc5ccc(-n6c(C(=O)NCC)nnc6-c6cc(C(C)C)c(O)cc6O)cc5)CC4)CN3C)nc3c2CCN(c2cccc4ccc(F)c(Cl)c24)C3)C[C@@H]1CC#N [Compound 278, 4-[4-({4-[(3S,5S)-5-({[7-(8-chloro-7-fluoronaphthalen-1-yl)-4-[(3S)-3-(cyanomethyl)-4-(prop-2-enoyl)piperazin-1-yl]-5H,6H,8H-pyrido[3,4-d]pyrimidin-2-yl]oxy}methyl)-1-methylpyrrolidin-3-yl]piperazin-1-yl}methyl)phenyl]-5-(2,4-dihydroxy-5-isopropylphenyl)-N-ethyl-1,2,4-triazole-3-carboxamide]
